Results as given in paper PMC7241567 (Journal of Enzyme Inhibition and Medicinal Chemistry, 2020).
Residue numbers refer to the chain shown, from its start. “Also recorded” adds a separate entry of the source.

What was measured:
Assay type in all cases: biochemical
ABL1 = biological target: T1, ABL1 (Homo sapiens, UniProt P00519); test: Reaction Biology Kinase HotSpot radiometric kinase assay
T1 construct: purchased Reaction Biology Corp. (Kinase HotSpot service)

Aurora A = biological target: T2, Aurora A (Homo sapiens, UniProt O14965); test: as above
T2 construct: purchased Reaction Biology Corp. (Kinase HotSpot service)

AXL = biological target: T3, AXL (Homo sapiens, UniProt P30530); test: as above
T3 construct: purchased Reaction Biology Corp. (Kinase HotSpot service)

AXL (R499C) = biological target: T4, AXL (R499C) (Homo sapiens, UniProt P30530, R499C); test: as above
T4 construct: purchased Reaction Biology Corp. (Kinase HotSpot service)

BRAF (V599E) = biological target: T5, BRAF (V599E) (Homo sapiens, UniProt P15056, V600E); test: as above
T5 construct: purchased Reaction Biology Corp. (Kinase HotSpot service)

BTK = biological target: T6, BTK (Homo sapiens, UniProt Q06187); test: as above
T6 construct: purchased Reaction Biology Corp. (Kinase HotSpot service)

CDK4/cyclin D1 = biological target: T7, CDK4/cyclin D1 (Homo sapiens, UniProt P11802); test: as above
T7 construct: purchased Reaction Biology Corp. (Kinase HotSpot service)

FLT1/VEGFR1 = biological target: T8, FLT1/VEGFR1 (Homo sapiens, UniProt P17948); test: as above
T8 construct: purchased Reaction Biology Corp. (Kinase HotSpot service)

FLT3 = biological target: T9, FLT3 (Homo sapiens, UniProt P36888); test: as above
T9 construct: purchased Reaction Biology Corp. (Kinase HotSpot service)
T9 sequence (P36888 27-993): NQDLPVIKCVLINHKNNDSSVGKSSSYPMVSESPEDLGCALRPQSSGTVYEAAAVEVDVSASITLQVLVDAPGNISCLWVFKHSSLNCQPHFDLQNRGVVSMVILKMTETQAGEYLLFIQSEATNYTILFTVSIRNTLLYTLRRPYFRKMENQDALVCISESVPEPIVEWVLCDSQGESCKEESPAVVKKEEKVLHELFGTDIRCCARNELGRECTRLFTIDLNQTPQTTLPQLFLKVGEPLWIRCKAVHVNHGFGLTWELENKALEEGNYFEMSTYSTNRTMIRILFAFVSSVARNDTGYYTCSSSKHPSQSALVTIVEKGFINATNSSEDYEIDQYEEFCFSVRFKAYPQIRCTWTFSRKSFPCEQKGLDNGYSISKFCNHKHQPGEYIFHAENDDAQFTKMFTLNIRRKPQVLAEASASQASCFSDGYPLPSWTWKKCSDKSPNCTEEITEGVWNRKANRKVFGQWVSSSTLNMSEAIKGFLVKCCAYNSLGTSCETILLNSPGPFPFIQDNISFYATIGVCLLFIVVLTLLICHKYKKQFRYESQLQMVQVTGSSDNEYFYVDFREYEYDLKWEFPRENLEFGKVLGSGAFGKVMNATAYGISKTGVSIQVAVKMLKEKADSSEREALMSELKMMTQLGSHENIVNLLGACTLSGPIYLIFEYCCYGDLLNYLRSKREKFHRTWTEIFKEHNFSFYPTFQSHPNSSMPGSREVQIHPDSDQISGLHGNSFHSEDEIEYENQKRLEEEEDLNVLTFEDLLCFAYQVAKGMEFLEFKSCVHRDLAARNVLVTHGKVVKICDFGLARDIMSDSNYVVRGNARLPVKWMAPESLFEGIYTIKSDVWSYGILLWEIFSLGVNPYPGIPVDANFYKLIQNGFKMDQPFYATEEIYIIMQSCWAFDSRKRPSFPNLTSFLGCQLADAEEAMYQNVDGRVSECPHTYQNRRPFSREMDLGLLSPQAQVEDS

FLT3-ITD = FLT3-ITD (Homo sapiens, UniProt P36888, ITD); test: as above
FYN = biological target: T10, FYN (Homo sapiens, UniProt P06241); test: as above
T10 construct: purchased Reaction Biology Corp. (Kinase HotSpot service)

GSK3b = biological target: T11, GSK3b (Homo sapiens, UniProt P49841); test: as above
T11 construct: purchased Reaction Biology Corp. (Kinase HotSpot service)

JAK3 = biological target: T12, JAK3 (Homo sapiens, UniProt P52333); test: as above
T12 construct: purchased Reaction Biology Corp. (Kinase HotSpot service)

JNK3 = biological target: T13, JNK3 (Homo sapiens, UniProt P53779); test: as above
T13 construct: purchased Reaction Biology Corp. (Kinase HotSpot service)

P38a/MAPK14 = P38a/MAPK14 (Homo sapiens, UniProt Q16539); test: as above
FLT3 (F594_R595 ins EY) = FLT3 (F594_R595 ins EY) (Homo sapiens, UniProt P36888); test: Enzymatic activity against FLT3 mutants
FLT3 (D835Y) = biological target: T14, FLT3 (D835Y) (Homo sapiens, UniProt P36888, D835Y); test: Enzymatic activity against FLT3 mutants
T14 construct: purchased Reaction Biology Corp. (Kinase HotSpot service)
T14 sequence (P36888 27-993 D835Y): T9 sequence (P36888 27-993) with D809Y

T4 sequence (P30530 26-894 R499C): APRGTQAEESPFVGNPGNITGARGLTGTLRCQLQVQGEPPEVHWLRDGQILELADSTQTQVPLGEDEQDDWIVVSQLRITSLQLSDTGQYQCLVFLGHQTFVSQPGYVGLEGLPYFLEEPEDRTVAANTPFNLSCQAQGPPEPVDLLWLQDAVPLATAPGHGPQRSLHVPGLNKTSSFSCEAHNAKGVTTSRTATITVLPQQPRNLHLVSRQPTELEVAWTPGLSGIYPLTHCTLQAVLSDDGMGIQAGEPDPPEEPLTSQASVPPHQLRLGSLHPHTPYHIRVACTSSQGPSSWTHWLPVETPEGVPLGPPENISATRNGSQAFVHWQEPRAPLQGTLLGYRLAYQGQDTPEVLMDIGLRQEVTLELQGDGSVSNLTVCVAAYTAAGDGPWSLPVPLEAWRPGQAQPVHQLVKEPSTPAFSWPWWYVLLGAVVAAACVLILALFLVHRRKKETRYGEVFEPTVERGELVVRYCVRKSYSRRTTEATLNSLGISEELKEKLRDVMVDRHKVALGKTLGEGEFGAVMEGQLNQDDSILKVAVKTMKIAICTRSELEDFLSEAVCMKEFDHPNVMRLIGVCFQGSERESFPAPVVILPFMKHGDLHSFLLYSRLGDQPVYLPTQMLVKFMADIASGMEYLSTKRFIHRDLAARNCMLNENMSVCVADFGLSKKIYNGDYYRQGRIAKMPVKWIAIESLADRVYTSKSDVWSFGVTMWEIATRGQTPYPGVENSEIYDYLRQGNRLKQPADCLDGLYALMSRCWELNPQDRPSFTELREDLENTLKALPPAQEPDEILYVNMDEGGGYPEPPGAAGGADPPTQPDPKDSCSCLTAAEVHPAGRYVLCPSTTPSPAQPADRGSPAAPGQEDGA
T13 sequence (P53779 whole entry): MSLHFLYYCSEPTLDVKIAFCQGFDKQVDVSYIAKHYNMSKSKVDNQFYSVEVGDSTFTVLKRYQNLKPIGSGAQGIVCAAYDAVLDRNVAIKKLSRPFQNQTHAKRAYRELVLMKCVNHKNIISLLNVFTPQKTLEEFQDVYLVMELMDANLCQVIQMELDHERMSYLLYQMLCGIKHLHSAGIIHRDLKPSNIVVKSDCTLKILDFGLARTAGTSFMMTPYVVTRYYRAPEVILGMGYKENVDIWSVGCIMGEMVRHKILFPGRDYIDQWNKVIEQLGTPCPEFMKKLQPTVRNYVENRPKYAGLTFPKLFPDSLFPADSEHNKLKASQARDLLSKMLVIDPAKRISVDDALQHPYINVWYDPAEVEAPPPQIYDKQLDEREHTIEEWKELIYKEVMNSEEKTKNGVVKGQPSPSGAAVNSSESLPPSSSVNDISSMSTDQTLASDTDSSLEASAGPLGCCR
T5 sequence (P15056 416-766 V600E limits assumed): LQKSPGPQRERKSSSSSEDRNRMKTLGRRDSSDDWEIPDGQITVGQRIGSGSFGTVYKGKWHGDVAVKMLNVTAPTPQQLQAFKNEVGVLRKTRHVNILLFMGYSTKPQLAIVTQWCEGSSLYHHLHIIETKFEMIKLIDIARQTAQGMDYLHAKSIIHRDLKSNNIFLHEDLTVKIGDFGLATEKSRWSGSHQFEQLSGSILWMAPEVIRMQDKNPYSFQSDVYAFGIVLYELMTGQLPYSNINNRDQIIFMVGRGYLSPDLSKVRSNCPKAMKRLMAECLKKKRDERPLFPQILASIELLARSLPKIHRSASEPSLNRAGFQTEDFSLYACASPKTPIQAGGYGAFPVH
T10 sequence (P06241 whole entry): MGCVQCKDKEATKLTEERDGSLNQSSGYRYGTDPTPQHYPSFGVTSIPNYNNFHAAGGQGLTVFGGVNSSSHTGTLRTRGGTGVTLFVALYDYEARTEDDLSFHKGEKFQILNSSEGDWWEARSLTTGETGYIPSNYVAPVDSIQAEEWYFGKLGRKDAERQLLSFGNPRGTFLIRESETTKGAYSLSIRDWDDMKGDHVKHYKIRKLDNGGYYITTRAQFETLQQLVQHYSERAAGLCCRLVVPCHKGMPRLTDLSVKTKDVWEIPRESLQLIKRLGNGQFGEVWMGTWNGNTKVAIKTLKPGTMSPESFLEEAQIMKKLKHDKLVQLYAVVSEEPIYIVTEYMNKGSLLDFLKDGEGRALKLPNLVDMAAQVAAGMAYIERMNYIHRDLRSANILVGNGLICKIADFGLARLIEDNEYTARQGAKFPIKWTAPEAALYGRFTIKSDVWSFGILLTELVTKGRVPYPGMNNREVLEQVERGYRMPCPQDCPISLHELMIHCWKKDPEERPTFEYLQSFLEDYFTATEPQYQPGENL
T7 sequence (P11802 whole entry): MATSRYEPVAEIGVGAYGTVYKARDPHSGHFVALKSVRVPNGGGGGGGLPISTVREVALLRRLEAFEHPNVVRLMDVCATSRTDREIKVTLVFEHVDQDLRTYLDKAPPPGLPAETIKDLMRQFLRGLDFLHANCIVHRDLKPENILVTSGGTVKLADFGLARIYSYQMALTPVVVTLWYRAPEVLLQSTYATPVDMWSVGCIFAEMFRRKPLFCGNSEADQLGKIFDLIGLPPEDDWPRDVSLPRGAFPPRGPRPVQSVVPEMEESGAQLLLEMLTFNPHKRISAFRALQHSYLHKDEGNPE
T7 sequence (P24385 whole entry partner): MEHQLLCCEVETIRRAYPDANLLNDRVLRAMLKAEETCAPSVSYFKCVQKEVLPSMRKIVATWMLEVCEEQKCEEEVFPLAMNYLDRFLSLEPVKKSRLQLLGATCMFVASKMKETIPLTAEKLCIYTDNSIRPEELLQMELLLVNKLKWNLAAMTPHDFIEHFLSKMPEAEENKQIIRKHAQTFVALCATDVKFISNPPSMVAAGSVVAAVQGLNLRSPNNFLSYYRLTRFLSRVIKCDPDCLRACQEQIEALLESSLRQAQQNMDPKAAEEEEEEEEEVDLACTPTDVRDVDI
T3 sequence (P30530 26-894): as the sequence (P30530 26-894 R499C) above, with C474R counted along it
T11 sequence (P49841 whole entry): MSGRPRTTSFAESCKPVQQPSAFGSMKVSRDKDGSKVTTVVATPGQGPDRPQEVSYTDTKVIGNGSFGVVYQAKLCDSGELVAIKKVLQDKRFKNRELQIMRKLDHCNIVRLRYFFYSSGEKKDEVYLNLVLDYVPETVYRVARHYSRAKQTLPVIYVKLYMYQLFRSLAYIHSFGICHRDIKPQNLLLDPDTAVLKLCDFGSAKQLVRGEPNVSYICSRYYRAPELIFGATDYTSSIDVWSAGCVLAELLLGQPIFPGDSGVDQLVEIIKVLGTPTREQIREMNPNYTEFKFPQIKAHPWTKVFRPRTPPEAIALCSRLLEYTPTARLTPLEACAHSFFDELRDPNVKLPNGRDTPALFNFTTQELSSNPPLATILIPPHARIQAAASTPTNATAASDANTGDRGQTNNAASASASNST
T2 sequence (O14965 whole entry): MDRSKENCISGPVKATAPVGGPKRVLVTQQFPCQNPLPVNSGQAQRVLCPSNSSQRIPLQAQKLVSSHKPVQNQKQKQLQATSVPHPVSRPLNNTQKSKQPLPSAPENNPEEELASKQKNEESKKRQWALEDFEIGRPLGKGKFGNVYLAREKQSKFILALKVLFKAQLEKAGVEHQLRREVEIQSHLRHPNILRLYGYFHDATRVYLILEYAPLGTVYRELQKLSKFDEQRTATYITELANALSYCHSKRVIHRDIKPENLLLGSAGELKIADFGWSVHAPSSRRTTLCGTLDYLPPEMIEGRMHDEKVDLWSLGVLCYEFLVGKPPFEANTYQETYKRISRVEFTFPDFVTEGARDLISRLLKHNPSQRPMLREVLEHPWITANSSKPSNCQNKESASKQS
T6 sequence (Q06187 whole entry): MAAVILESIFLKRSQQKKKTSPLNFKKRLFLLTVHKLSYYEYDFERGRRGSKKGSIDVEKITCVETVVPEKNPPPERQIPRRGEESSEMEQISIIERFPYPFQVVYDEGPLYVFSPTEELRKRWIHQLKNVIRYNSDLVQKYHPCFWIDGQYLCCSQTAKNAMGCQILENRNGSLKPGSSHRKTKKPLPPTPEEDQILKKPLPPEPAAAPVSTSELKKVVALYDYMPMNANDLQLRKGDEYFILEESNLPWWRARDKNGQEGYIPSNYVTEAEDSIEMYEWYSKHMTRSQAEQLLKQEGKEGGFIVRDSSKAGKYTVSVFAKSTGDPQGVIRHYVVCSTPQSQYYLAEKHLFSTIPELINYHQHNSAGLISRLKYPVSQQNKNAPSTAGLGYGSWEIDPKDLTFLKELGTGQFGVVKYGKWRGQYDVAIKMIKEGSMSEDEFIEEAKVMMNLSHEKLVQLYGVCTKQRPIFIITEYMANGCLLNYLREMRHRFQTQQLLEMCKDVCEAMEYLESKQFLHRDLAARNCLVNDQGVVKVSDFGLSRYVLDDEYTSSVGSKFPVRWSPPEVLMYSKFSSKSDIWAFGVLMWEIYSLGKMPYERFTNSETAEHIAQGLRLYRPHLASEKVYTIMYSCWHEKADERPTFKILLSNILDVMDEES
P38a/MAPK14, sequence (Q16539 whole entry): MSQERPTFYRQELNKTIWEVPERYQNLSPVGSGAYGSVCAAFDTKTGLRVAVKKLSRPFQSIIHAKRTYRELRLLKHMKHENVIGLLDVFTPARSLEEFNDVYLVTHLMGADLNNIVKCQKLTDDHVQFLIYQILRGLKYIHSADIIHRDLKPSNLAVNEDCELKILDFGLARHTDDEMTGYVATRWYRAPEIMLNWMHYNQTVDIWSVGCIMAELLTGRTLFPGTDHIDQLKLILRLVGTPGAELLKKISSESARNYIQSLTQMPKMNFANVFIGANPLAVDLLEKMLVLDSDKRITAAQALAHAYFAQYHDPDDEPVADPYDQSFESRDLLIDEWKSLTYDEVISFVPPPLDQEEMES

Cc1oncc1C(=O)Nc1ccc2cnc(-c3cc(N4CCN(C)CC4)cc(C(F)(F)F)c3)nc2c1 [Compound 7d, 5-methyl-N-(2-(3-(4-methylpiperazin-1-yl)-5-(trifluoromethyl)phenyl)quinazolin-7-yl)isoxazole-4-carboxamide]
inhibition at 10 µM (ABL1): 6.46%
inhibition at 10 µM (Aurora A): 20.1%
inhibition at 10 µM (AXL): 21.2%
inhibition at 10 µM (AXL (R499C)): 10.1%
inhibition at 10 µM (BRAF (V599E)): 5.19%
inhibition at 10 µM (BTK): 17.5%
inhibition at 10 µM (CDK4/cyclin D1): 3.01%
inhibition at 10 µM (FLT1/VEGFR1): 5.23%
inhibition at 10 µM (FLT3): 96.6%
inhibitory activity towards FLT3 (in words) (FLT3): maintained the activity; also recorded: maintained inhibitory activity
IC50 (FLT3; FLT3 wild type, read-out: IC50 against FLT3): 106 nM
inhibition at 10 µM (FLT3-ITD; FLT3-ITD, 10 µM): 95.2%
IC50 (FLT3-ITD; read-out: IC50 against FLT3-ITD): 301 nM
inhibition at 10 µM (FYN): 19%
inhibition at 10 µM (GSK3b): 8.06%
inhibition at 10 µM (JAK3): 0.8%
inhibition at 10 µM (JNK3): 19.5%
inhibition at 10 µM (P38a/MAPK14): 0%
IC50 (FLT3 (F594_R595 ins EY)): 495 nM
decrease of activity against FLT3-TKD (D835Y) compared to FLT3 wild type (FLT3 (D835Y)): about 2 fold
IC50 (FLT3 (D835Y); FLT3 (D835Y)): 228 nM
IC50 (FLT3 (D835Y); FLT3-TKD (D835Y)): 228 nM
